Drawing on ChEMBL document CHEMBL1147234, “Bioassay-guided isolation of epiquinamide, a novel quinolizidine alkaloid and nicotinic agonist from an Ecuadoran poison frog, Epipedobates tricolor” (J Nat Prod, 2003), this text covers Activity for 1 compound.

Common to all, as to assay type: functional
For test [1], the target named is Neuronal acetylcholine receptor; alpha4/beta2 (Homo sapiens) (UniProt P17787+P43681). Put plainly: Agonist activity at human nicotinic alpha4beta2 receptor expressed in human K177 cells at 50 uM by cell based membrane potential assay relative to (+/-)-epibatidine.
The target in test [2] is Acetylcholine receptor; alpha1/beta1/delta/gamma (Homo sapiens) (UniProt P02708+P07510+P11230+Q07001). Put plainly: Agonist activity at human nicotinic alpha-1-beta-1-gamma-delta receptor expressed in human TE-671 cells at 50 uM by cell based membrane potential assay relative to (+/-)-epibatidine.
Test [3] addresses Neuronal acetylcholine receptor; alpha3/beta4 (Homo sapiens) (UniProt P30926+P32297). Put plainly: Agonist activity at human nicotinic alpha3beta4 receptor expressed in human IMR32 cells at 50 uM by cell based membrane potential assay relative to (+/-)-epibatidine. The settings on record: IMR-32.
The target in test [4] is Neuronal acetylcholine receptor; alpha3/beta4 (Rattus norvegicus) (UniProt P04757+P12392). Put plainly: Agonist activity at rat nicotinic alpha3beta4 receptor expressed in human KXalpha-3-beta-4R2 cells at 50 uM by cell based membrane potential assay relative to (+/-)-epibatidine.
Test [5] addresses Neuronal acetylcholine receptor; alpha3/beta2 (Homo sapiens) (UniProt P17787+P32297). Put plainly: Agonist activity at human nicotinic alpha3beta2 receptor expressed in human SH-SY5Y cells at 50 uM by cell based membrane potential assay relative to (+/-)-epibatidine.

`CC(=O)N[C@@H]1CCCN2CCCC[C@H]12` (relative stereo): the Activity in test [1] was determined as 58%; in test [2], 8%; in test [3] it was 15%; in test [4], 23%; in test [5], 51%.
